Results published in patent US20070155698A1, “Oxazaborolidines as bacteria effectors” (priority 2003, published 2007).
Converted amounts (≈) assume the structure as drawn. Where two headings read alike, the source gives them in different places.

Legend:
S. mutans ATCC 27351 = test: Minimal inhibitory concentration (MIC), turbidity of overnight growth; type: cell-based; settings: for MIC: Streptococcus mutans, read-out: MIC Mean
Description: Sterile microculture dishes containing multiple wells were used to determine the minimal inhibitory concentration MIC) of eight derivatives of oxazborolidines. Each well contained 120 μl of brain heart infusion medium, 15 μl of an overnight suspension of S. mutans ATCC 27351 adjusted to 1 OD540 nm and 15 μl of the tested compound. Each compound was tested at five different concentrations between 0-50 mM. Each experiment was repeated twice. These cultures were incubated at 37° C. in atmosphere enriched in 5% CO2 for 24 hours. Bacteria growth was determined as turbidity of the over night growth and was determined by computerized ELISA reader (Thermomax microplate reader, Molecular Devices, USA) at 650 nm. Control cultures of bacteria with no oxazaborolidines added and media broth with the oxzaborilidines added but with no bacteria were conducted.

[1] = test system: AI-2 reporter strain Vibrio harveyi BB170; test: Induction of bioluminescence in the AI-2 reporter strain (quorum sensing); type: cell-based
Description: Bright overnight culture was diluted 1:5000 and the bioluminescence was traced along growth of the diluted bacterial culture. BNO-1 in tested concentrations was added at start of the bacterial growth. For calculation of fold induction was used the bioluminescence levels at 3 hr after start of the growth.
(§1) Luminescence was monitored by Lumac/3M Biocounter M2010, Netherlands. Culture density was measured as CFU on selective solid LM (L-marine) medium per ml of culture. Relative luminescence (“bioluminescence” in figures) was calculated as quotient of luminescence and culture density and expressed in relative light units (RLU, count/10^6 CFU).
(§2) Fold induction was calculated as relation between induced by BNO-1 and not induced relative luminescence. A measure of inhibition was defined as relation of induced by AI-2 relative luminescence in the presence and in the absence of BNO-2.

[2] = test system: bacterial adhesion to hydroxyapatite (HA) beads; test: Adhesion of radioactively labeled bacteria to hydroxyapatite beads; type: cell-based; settings: 60 mM
Description: 40 mg samples of hydroxyapatite (HA) beads (Ceramic hydroxyapatite type I, 80 um, Bio-Rad Laboratories, Hercules, Calif., USA)) (surface area, 0.63 cm^2/mg) were equilibrated with 3 washes of buffered KCl to which 250 μl of labeled radioactive bacteria (prepared as described above), 400 μl of the tested boronic compound and 50 μl of 700 mM sucrose (in KCl buffer solution) were added. The mixture was incubated for 60 min at 37 C with gentle rotation. At the end of the incubation period, the beads were washed 3 times with buffered KCl for removal of unbound components, especially the non-adsorbed labeled bacteria, and then rinsed with 2 ml ethanol into vials containing 10 ml scintillation fluid (Ecoscint A, National Diagnostics, Manville, N.J.). The amount of radioactively labeled bacteria adsorbed onto the HA beads was measured by scintillation counting (BETAmatic scintillation counter (Koutron®, Basel, Switzerland). Results are expressed as percent of bacterial adhesion in comparison to a control group containing no agent.

[3] = test system: AI-2 reporter strain Vibrio harveyi BB170; test: Inhibition of AI-2-induced bioluminescence (quorum sensing); type: cell-based; settings: added together with exogenous AI-2
Description: Bright overnight culture was diluted 1:5000 and the bioluminescence was traced along growth of the diluted bacterial culture at the presence of AI-2 which was added at start of the bacterial growth in the induced concentration. BNO-2 in tested concentrations was added at start of the bacterial growth. The residual bioluminescence is expressed as part of maximal, AI-2-inducted and non-inhibited bioluminescence. For the calculation was used bioluminescence level at 2.5 hr after start of the growth.
as §1, §2

[4] = Effect of pH on the oxazaborolidine derivatives (11B NMR); type: physicochemical; settings: pH=10.8
From the text: At pH=10.8, the free n-butylboronic acid has a chemical shift of 19.974 ppm, while BNO3, the B-butyl containing derivative gives two peaks, one at 24.868 ppm (90%) which is the intermediate and a peak at 6.8 ppm (10%) that belongs to the mentioned above complex. At further basic conditions, a peak at 5.2 ppm exist which indicate a complete conversion to an ate-complex moiety.
On the other hand, the B-phenyl containing derivatives are converted to the ate-complex once they are fully dissolved in H2O, the ate-complex appears at 5.461 ppm in the ^11B NMR.

[5] = ATCC27351, S. mutans, 24 hours, 37° C.

Compound	antibacterial efficacy against S. mutans (MIC based, in words) (S. mutans ATCC 27351)	MIC Range (S. mutans ATCC 27351; S. mutans, 24 hours, 37° C.)	MIC (S. mutans ATCC 27351; [5])	further results
CC1C(c2ccccc2)OB(c2ccccc2)N1C (stereo not drawn) [BNO1, 3,4-dimethyl-2,5-diphenyl-1,3,2-oxazaborolidine]	most active	0.77 to 2.33 mM	–	MIC (S. mutans ATCC 27351; ATCC27351, 24 h): 1550 µM (≈ 389 µg/mL); induction of bioluminescence of Vibrio harveyi BB170 ([1]; dose dependent, sensor 1− sensor 2+): induced; induction of bioluminescence in mutants with sensor 2− ([1]; sensor 2− mutants): do not react
CC1(C)COB(c2ccccc2)N1 [BNO2, 4,4-dimethyl-2-phenyl-1,3,2-oxazaborolidine]	–	2 to 10 mM	6000 µM (≈ 1050 µg/mL)	promotion of bacterial adhesion [2]: 37%; inhibition of the ability of exogenous AI-2 to induce bioluminescence [3]: strongly inhibited
CCCCB1NC(C)(C)CO1 [BNO3, 2-butyl-4,4-dimethyl-1,3,2-oxazaborolidine]	–	2.25 to 4.5 mM	3380 µM (≈ 524 µg/mL)	reduction of bacterial capability to adhere to hydroxyapatite surface [2]: 63%; share of ate-complex (11B NMR peak at 6.8 ppm) [4]: 10%; share of intermediate (11B NMR peak at 24.868 ppm) [4]: 90%
CC1NB(c2ccccc2)OC1c1ccccc1 (stereo not drawn) [BNO4, 4-methyl-2,5-diphenyl-1,3,2-oxazaborolidine]	–	0.90 to 1.75 mM	1330 µM (≈ 315 µg/mL)	–
CCCCB1OC(c2ccccc2)C(C)N1C (stereo not drawn) [BNO5, 2-butyl-3,4-dimethyl-5-phenyl-1,3,2-oxazaborolidine]	most active	0.26 to 0.80 mM	530 µM (≈ 123 µg/mL)	–
CCCCB1NC(C)C(c2ccccc2)O1 (stereo not drawn) [BNO6, 2-butyl-4-methyl-5-phenyl-1,3,2-oxazaborolidine]	–	1.90 to 3.75 mM	2830 µM (≈ 614 µg/mL)	–
[(2-)-N,O,O′[2,2′-Iminobis[ethanolato]]]-2-n-butylboron [BNO7]	weakest activity	4.5 to 9.0 mM	–	MIC Mean (S. mutans ATCC 27351; S. mutans, 24 hours, 37° C.): 6750 µM
[(2-)-N,O,O′[2,2′-Iminobis[ethanolato]]]-2-phenylboron [BNO8]	weakest activity	4.5-9. mM	–	MIC Mean (S. mutans ATCC 27351; S. mutans, 24 hours, 37° C.): 6750 µM
